# Experimental data taken from ChEMBL document CHEMBL1201861, “Genomics of Drug Sensitity in Cancer screening data, Wellcome Trust Sanger Institute”.
# What was measured:
# [1] = system: SNU-16; test: cells; assay type: functional, cell-based; conditions: Homo sapiens;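 further: growth inhibition of human SNU-16 cells, determined with a cell viability readout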
# Description: SANGER: Inhibition of human NCI-SNU-16 cell growth in a cell viability assay.
# [2] = system: UACC-812; test: cells; assay type: functional, cell-based; conditions: Homo sapiens
# Description: SANGER: Inhibition of human UACC-812 cell growth in a cell viability assay.
# [3] = system: THP-1; test: cells; assay type: functional, cell-based; conditions: Homo sapiens;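 further: growth inhibition of THP-1 cells, read out via a cell viability assay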
# Description: SANGER: Inhibition of human THP-1 cell growth in a cell viability assay.
# [4] = system: SU-DHL-1; test: SANGER: Inhibition of human SU-DHL-1 cell growth in a cell viability assay.; assay type: functional, cell-based
# [5] = system: NCI-H1573; test: cells; assay type: functional, cell-based; conditions: Homo sapiens;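 further: growth inhibition of NCI-H1573 cells, read out with a cell viability assay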
# Description: SANGER: Inhibition of human NCI-H1573 cell growth in a cell viability assay.
# [6] = system: BC-3; test: cells; assay type: functional, cell-based; conditions: Homo sapiens;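 further: cell viability assay measuring growth inhibition of human BC-3 cells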
# Description: SANGER: Inhibition of human BC-3 cell growth in a cell viability assay.
# [7] = system: NCI-H345; test: cells; assay type: functional, cell-based; conditions: Homo sapiens;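 further: growth inhibition of NCI-H345 cells measured with a cell viability assay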
# Description: SANGER: Inhibition of human NCI-H345 cell growth in a cell viability assay.
# [8] = system: CAL-148; test: cells; assay type: functional, cell-based; conditions: Homo sapiens
# Description: SANGER: Inhibition of human CAL-148 cell growth in a cell viability assay.
# [9] = system: COR-L279; test: SANGER: Inhibition of human COR-L279 cell growth in a cell viability assay.; assay type: functional, cell-based
# [10] = system: MHH-CALL-2; test: cells; assay type: functional, cell-based; conditions: Homo sapiens;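 further: growth inhibition of the cell line, read out in a cell viability assay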
# Description: SANGER: Inhibition of human MHH-CALL-2 cell growth in a cell viability assay.
# [11] = system: NCI-H1703; test: cells; assay type: functional, cell-based, Homo sapiens; conditions: Homo sapiens, NCI-H1703;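 further: growth inhibition of NCI-H1703 cells, read out via a cell viability assay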
# Description: SANGER: Inhibition of human NCI-H1703 cell growth in a cell viability assay.
# [12] = system: TE-15; test: cells; assay type: functional, cell-based; conditions: Homo sapiens;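 further: cell viability readout of growth inhibition in TE-15 cells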
# Description: SANGER: Inhibition of human TE-15 cell growth in a cell viability assay.
# [13] = system: LC4-1; test: cells; assay type: functional, cell-based; conditions: Homo sapiens;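 further: growth inhibition of LC4-1 cells, read out with a cell viability assay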
# Description: SANGER: Inhibition of human LC4-1 cell growth in a cell viability assay.
# [14] = system: JIYOYE; test: cells; assay type: functional, cell-based; conditions: Homo sapiens
# Description: SANGER: Inhibition of human JiyoyeP-2003 cell growth in a cell viability assay.
# [15] = system: TALL-1; test: cells; assay type: functional, cell-based; conditions: Homo sapiens;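 further: growth inhibition of cultured human TALL-1 cells, read out by a cell viability assay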
# Description: SANGER: Inhibition of human TALL-1 cell growth in a cell viability assay.
# [16] = system: IM-9; test: SANGER: Inhibition of human IM-9 cell growth in a cell viability assay.; assay type: functional, cell-based
# [17] = system: MONO-MAC-6; test: cells; assay type: functional, cell-based; conditions: Homo sapiens;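 further: cell viability assay measuring growth inhibition of human MONO-MAC-6 cells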
# Description: SANGER: Inhibition of human MONO-MAC-6 cell growth in a cell viability assay.
# [18] = system: ARH-77; test: cells; assay type: functional, cell-based; conditions: Homo sapiens;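 further: growth inhibition of ARH-77 cells, read out by a cell viability assay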
# Description: SANGER: Inhibition of human ARH-77 cell growth in a cell viability assay.
# [19] = system: HT55; test: cells; assay type: functional, cell-based, Homo sapiens; conditions: Homo sapiens, HT55;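 further: cell viability readout measuring growth inhibition of human HT55 cells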
# Description: SANGER: Inhibition of human HT55 cell growth in a cell viability assay.
# [20] = system: DG-75; test: cells; assay type: functional, cell-based; conditions: Homo sapiens;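 further: growth inhibition of DG-75 cells, read out with a cell viability assay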
# Description: SANGER: Inhibition of human DG-75 cell growth in a cell viability assay.
# [21] = system: IST-SL2; test: cells; assay type: functional, cell-based; conditions: Homo sapiens;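 further: growth inhibition of human IST-SL2 cells, read out by a cell viability assay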
# Description: SANGER: Inhibition of human IST-SL2 cell growth in a cell viability assay.
# [22] = system: NCI-H2009; test: cells; assay type: functional, cell-based, Homo sapiens; conditions: Homo sapiens, NCI-H2009;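 further: cell viability assay measuring inhibition of NCI-H2009 cell growth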
# Description: SANGER: Inhibition of human NCI-H2009 cell growth in a cell viability assay.
# [23] = system: CMK; test: cells; assay type: functional, cell-based; conditions: Homo sapiens;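 further: growth inhibition of CMK cells, read out as cell viability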
# Description: SANGER: Inhibition of human CMK cell growth in a cell viability assay.
# [24] = system: CESS; test: SANGER: Inhibition of human CESS cell growth in a cell viability assay.; assay type: functional, cell-based
# [25] = system: 23132-87; test: cells; assay type: functional, cell-based, Homo sapiens; conditions: Homo sapiens
# Description: SANGER: Inhibition of human 23132-87 cell growth in a cell viability assay.
# [26] = system: NCI-H322M; test: cells; assay type: functional, cell-based; conditions: Homo sapiens;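 further: cell viability assay measuring inhibition of growth of human NCI-H322M cells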
# Description: SANGER: Inhibition of human NCI-H322M cell growth in a cell viability assay.
# [27] = system: TE-441-T; test: cells; assay type: functional, cell-based; conditions: Homo sapiens
# Description: SANGER: Inhibition of human TE-441-T cell growth in a cell viability assay.
# [28] = system: NCI-H524; test: cells; assay type: functional, cell-based; conditions: Homo sapiens;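 further: growth inhibition of human NCI-H524 cells, read out through a cell viability assay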
# Description: SANGER: Inhibition of human NCI-H524 cell growth in a cell viability assay.
# [29] = system: MEL-JUSO; test: cells; assay type: functional, cell-based, Homo sapiens; conditions: Homo sapiens, MEL-JUSO;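 further: growth inhibition of human MEL-JUSO cells, read out with a cell viability assay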
# Description: SANGER: Inhibition of human MEL-JUSO cell growth in a cell viability assay.
# [30] = system: SCLC-21H; test: cells; assay type: functional, cell-based; conditions: Homo sapiens;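 further: growth inhibition of cultured human SCLC-21H cells, read out with a cell viability assay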
# Description: SANGER: Inhibition of human SCLC-21H cell growth in a cell viability assay.
# [31] = system: SCC-3; test: cells; assay type: functional, cell-based; conditions: Homo sapiens;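 further: cell viability assay measuring inhibition of SCC-3 cell growth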
# Description: SANGER: Inhibition of human SCC-3 cell growth in a cell viability assay.
# [32] = system: HSC-4; test: cells; assay type: functional, cell-based, Homo sapiens; conditions: Homo sapiens, HSC-4;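 further: growth inhibition of human HSC-4 cells, read out with a cell viability assay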
# Description: SANGER: Inhibition of human HSC-4 cell growth in a cell viability assay.
# [33] = system: NCI-H1436; test: cells; assay type: functional, cell-based; conditions: Homo sapiens;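 further: growth suppression of human NCI-H1436 cells, determined with a cell viability readout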
# Description: SANGER: Inhibition of human NCI-H1436 cell growth in a cell viability assay.
# [34] = system: SIG-M5; test: cells; assay type: functional, cell-based; conditions: Homo sapiens;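 further: cell viability assay read-out, measuring how strongly growth of cultured human SIG-M5 cells is inhibited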
# Description: SANGER: Inhibition of human SIG-M5 cell growth in a cell viability assay.
# [35] = system: NCI-H2227; test: cells; assay type: functional, cell-based; conditions: Homo sapiens;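 further: growth inhibition of the human cell line, read out with a cell viability assay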
# Description: SANGER: Inhibition of human NCI-H2227 cell growth in a cell viability assay.
# [36] = system: U-698-M; test: cells; assay type: functional, cell-based; conditions: Homo sapiens
# Description: SANGER: Inhibition of human U-698-M cell growth in a cell viability assay.
# [37] = system: CA46; test: cells; assay type: functional, cell-based; conditions: Homo sapiens;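 further: growth inhibition of human CA46 cells, read out by a cell viability assay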
# Description: SANGER: Inhibition of human CA46 cell growth in a cell viability assay.
# [38] = system: EB2; test: cells; assay type: functional, cell-based; conditions: Homo sapiens;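 further: growth inhibition of EB2 cells, read out with a cell viability assay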
# Description: SANGER: Inhibition of human EB2 cell growth in a cell viability assay.
# [39] = system: NCI-H64; test: cells; assay type: functional, cell-based; conditions: Homo sapiens;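 further: growth inhibition of NCI-H64 cells, read out with a cell viability assay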
# Description: SANGER: Inhibition of human NCI-H64 cell growth in a cell viability assay.
# [40] = system: RL; test: cells; assay type: functional, cell-based; conditions: Homo sapiens
# Description: SANGER: Inhibition of human RL cell growth in a cell viability assay.
# [41] = system: SNU-C1; test: cells; assay type: functional, cell-based; conditions: Homo sapiens;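 further: growth inhibition of SNU-C1 human cells, read out by a cell viability assay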
# Description: SANGER: Inhibition of human SNU-C1 cell growth in a cell viability assay.
# [42] = system: RPMI-6666; test: cells; assay type: functional, cell-based; conditions: Homo sapiens
# Description: SANGER: Inhibition of human RPMI-6666 cell growth in a cell viability assay.
# [43] = system: SJRH30; test: cells; assay type: functional, cell-based; conditions: Homo sapiens;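 further: growth inhibition of human SJRH30 cells, read out with a cell viability assay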
# Description: SANGER: Inhibition of human SJRH30 cell growth in a cell viability assay.
# [44] = system: HCT-15; test: cells; assay type: functional, cell-based, Homo sapiens; conditions: Homo sapiens, HCT-15;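 further: cell viability readout, IC50 reflecting suppression of HCT-15 cell growth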
# Description: SANGER: Inhibition of human HCT-15 cell growth in a cell viability assay.
# [45] = system: NCCIT; test: SANGER: Inhibition of human NCCIT cell growth in a cell viability assay.; assay type: functional, cell-based
# [46] = system: LOUCY; test: cells; assay type: functional, cell-based; conditions: Homo sapiens;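 further: growth inhibition of human LOUCY cells, read out with a cell viability assay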
# Description: SANGER: Inhibition of human LOUCY cell growth in a cell viability assay.
compound,measurement,setting,value
C[C@]1(O)C[C@@H](c2nc(-c3ccc4ccc(-c5ccccc5)nc4c3)c3c(N)nccn32)C1 [LINSITINIB],IC50,[1],> 2560 nM
same,IC50,[2],> 2560 nM
same,IC50,[3],> 2560 nM
same,IC50,[4],> 2560 nM
same,IC50,[5],> 2560 nM
same,IC50,[6],> 2560 nM
same,IC50,[7],> 2560 nM
same,IC50,[8],> 2560 nM
same,IC50,[9],> 2560 nM
same,IC50,[10],> 2560 nM
same,IC50,[11],> 2560 nM
same,IC50,[12],> 2560 nM
same,IC50,[13],> 2560 nM
same,IC50,[14],> 2560 nM
same,IC50,[15],> 2560 nM
same,IC50,[16],> 2560 nM
same,IC50,[17],> 2560 nM
same,IC50,[18],> 2560 nM
same,IC50,[19],> 2560 nM
same,IC50,[20],> 2560 nM
same,IC50,[21],> 2560 nM
same,IC50,[22],> 2560 nM
same,IC50,[23],999 nM
same,IC50,[24],> 2560 nM
same,IC50,[25],> 2560 nM
same,IC50,[26],> 2560 nM
same,IC50,[27],> 2560 nM
same,IC50,[28],> 2560 nM
same,IC50,[29],1160 nM
same,IC50,[30],> 2560 nM
same,IC50,[31],> 2560 nM
same,IC50,[32],> 2560 nM
same,IC50,[33],> 2560 nM
same,IC50,[34],536 nM
same,IC50,[35],> 2560 nM
same,IC50,[36],> 2560 nM
same,IC50,[37],> 2560 nM
same,IC50,[38],> 2560 nM
same,IC50,[39],> 2560 nM
same,IC50,[40],> 2560 nM
same,IC50,[41],293 nM
same,IC50,[42],> 2560 nM
same,IC50,[43],508 nM
same,IC50,[44],> 2560 nM
same,IC50,[45],> 2560 nM
same,IC50,[46],> 2560 nM
C=CCc1cccc(/C=N/NC(=O)CN2CCN(Cc3ccccc3)CC2)c1O [PAC-1],IC50,[1],> 2560 nM
same,IC50,[2],> 2560 nM
same,IC50,[3],> 2560 nM
same,IC50,[4],> 2560 nM
same,IC50,[5],> 2560 nM
same,IC50,[6],> 2560 nM
same,IC50,[7],> 2560 nM
same,IC50,[8],> 2560 nM
same,IC50,[9],> 2560 nM
same,IC50,[10],> 2560 nM
same,IC50,[11],> 2560 nM
same,IC50,[12],> 2560 nM
same,IC50,[13],> 2560 nM
same,IC50,[14],1100 nM
same,IC50,[15],> 2560 nM
same,IC50,[16],> 2560 nM
same,IC50,[17],> 2560 nM
same,IC50,[18],> 2560 nM
same,IC50,[19],> 2560 nM
same,IC50,[20],> 2560 nM
same,IC50,[21],> 2560 nM
same,IC50,[22],> 2560 nM
same,IC50,[23],2130 nM
same,IC50,[24],1490 nM
same,IC50,[25],> 2560 nM
same,IC50,[26],> 2560 nM
same,IC50,[27],> 2560 nM
same,IC50,[28],> 2560 nM
same,IC50,[29],> 2560 nM
same,IC50,[30],> 2560 nM
same,IC50,[31],> 2560 nM
same,IC50,[32],> 2560 nM
same,IC50,[33],> 2560 nM
same,IC50,[34],> 2560 nM
same,IC50,[35],> 2560 nM
same,IC50,[36],> 2560 nM
same,IC50,[37],2020 nM
same,IC50,[38],> 2560 nM
same,IC50,[39],> 2560 nM
same,IC50,[40],> 2560 nM
same,IC50,[41],> 2560 nM
same,IC50,[42],1040 nM
same,IC50,[43],> 2560 nM
same,IC50,[44],1580 nM
same,IC50,[45],> 2560 nM
same,IC50,[46],823 nM
